# Reference: patent publication US20230085307A1, “PYRIDAZINONE COMPOUND AND HERBICIDE” (NISSAN CHEMICAL CORPORATION, priority 2019, published 2023)
# Columns and labels:
# barnyard grass [1] = experiment: Test Example 3: herbicidal effect by foliage application, Wagner pot (Table 18, symbol H); assay type: in vivo, barnyard grass (Echinochloa crus-galli)
# In short: (§1)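 Plants were sown in alluvial soil held under 0.1–0.5 cm standing water and grown 14 days in a greenhouse at 25–30 °C. An emulsifiable formulation, water-diluted to the set dose, was then sprayed onto the foliage, and effects were scored three weeks later using previously defined criteria.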
# Chinese sprangletop = experiment: Test Example 3: herbicidal effect by foliage application, Wagner pot (Table 18, symbol D); assay type: in vivo, chinese sprangletop (Leptochloa chinensis)
# In short: as §1
# rice flat sedge = experiment: Test Example 3: herbicidal effect by foliage application, Wagner pot (Table 18, symbol E); assay type: in vivo, rice flat sedge (Cyperus iria)
# In short: as §1
# southern crabgrass [2] = experiment: Test Example 4: herbicidal effect by soil treatment (Table 19, symbol F); assay type: in vivo, southern crabgrass (Digitaria ciliaris); settings: amount of applied herbicide 320 g/ha
# In short: (§2)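 Seeds were sown in sterilized diluvial soil and covered with about 1.5 cm of soil. An emulsion formulation diluted with water to a predetermined herbicide amount was sprayed evenly onto the soil surface. Plants grew in a greenhouse at 25° C. to 30° C., and the effect was scored three weeks after application using criteria from an earlier test.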
# green foxtail [3] = experiment: Test Example 4: herbicidal effect by soil treatment (Table 19, symbol G); assay type: in vivo, green foxtail (Setaria viridis); settings: amount of applied herbicide 320 g/ha
# In short: as §2
# barnyard grass [4] = experiment: Test Example 4: herbicidal effect by soil treatment (Table 19, symbol H); assay type: in vivo, barnyard grass (Echinochloa crus-galli); settings: amount of applied herbicide 320 g/ha
# In short: as §2
# wild oat [5] = experiment: Test Example 4: herbicidal effect by soil treatment (Table 19, symbol I); assay type: in vivo, wild oat (Avena fatua); settings: amount of applied herbicide 320 g/ha
# In short: as §2
# blackgrass [6] = experiment: Test Example 4: herbicidal effect by soil treatment (Table 19, symbol J); assay type: in vivo, blackgrass (Alopecurus myosuroides); settings: amount of applied herbicide 320 g/ha
# In short: as §2
# Italian ryegrass [7] = experiment: Test Example 4: herbicidal effect by soil treatment (Table 19, symbol K); assay type: in vivo, Italian ryegrass (Lolium multiflorum); settings: amount of applied herbicide 320 g/ha
# In short: as §2
# windgrass [8] = experiment: Test Example 4: herbicidal effect by soil treatment (Table 19, symbol L); assay type: in vivo, windgrass (Apera spica-venti); settings: amount of applied herbicide 320 g/ha
# In short: as §2
# velvetleaf [9] = experiment: Test Example 4: herbicidal effect by soil treatment (Table 19, symbol M); assay type: in vivo, velvetleaf (Abutilon theophrasti); settings: amount of applied herbicide 320 g/ha
# In short: as §2
# redroot pigweed [10] = experiment: Test Example 4: herbicidal effect by soil treatment (Table 19, symbol N); assay type: in vivo, redroot pigweed (Amaranthus retroflexus); settings: amount of applied herbicide 320 g/ha
# In short: as §2
# lambsquarters [11] = experiment: Test Example 4: herbicidal effect by soil treatment (Table 19, symbol O); assay type: in vivo, lambsquarters (Chenopodium album); settings: amount of applied herbicide 320 g/ha
# In short: as §2
# chickweed [12] = experiment: Test Example 4: herbicidal effect by soil treatment (Table 19, symbol P); assay type: in vivo, common chickweed (Stellaria media); settings: amount of applied herbicide 320 g/ha
# In short: as §2
# false cleavers = experiment: Test Example 4: herbicidal effect by soil treatment (Table 19, symbol Q); assay type: in vivo, false cleavers (Galium spurium); settings: amount of applied herbicide 320 g/ha
# In short: as §2
# persian speedwell [13] = experiment: Test Example 4: herbicidal effect by soil treatment (Table 19, symbol R); assay type: in vivo, Persian speedwell (Veronica persica); settings: amount of applied herbicide 320 g/ha
# In short: as §2
# southern crabgrass [14] = experiment: Test Example 5: herbicidal effect by foliage application, plastic box (Table 20, symbol F); assay type: in vivo, southern crabgrass (Digitaria ciliaris); settings: foliage application, 320 g/ha, three weeks after application
# In short: (§3)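 Plants sown in sterilized diluvial soil and grown 14 days in a greenhouse at 25° C to 30° C, then sprayed on the foliage with the compound's emulsion diluted in water to a predetermined herbicide amount. Injury to weeds and crops scored three weeks after application on a visual rating scale.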
# green foxtail [15] = experiment: Test Example 5: herbicidal effect by foliage application, plastic box (Table 20, symbol G); assay type: in vivo, green foxtail (Setaria viridis); settings: foliage application, 320 g/ha, three weeks after application
# In short: as §3
# barnyard grass [16] = experiment: Test Example 5: herbicidal effect by foliage application, plastic box (Table 20, symbol H); assay type: in vivo, barnyard grass (Echinochloa crus-galli); settings: foliage application, 320 g/ha, three weeks after application
# In short: as §3
# wild oat [17] = experiment: Test Example 5: herbicidal effect by foliage application, plastic box (Table 20, symbol I); assay type: in vivo, wild oat (Avena fatua); settings: foliage application, 320 g/ha, three weeks after application
# In short: as §3
# blackgrass [18] = experiment: Test Example 5: herbicidal effect by foliage application, plastic box (Table 20, symbol J); assay type: in vivo, blackgrass (Alopecurus myosuroides); settings: foliage application, 320 g/ha, three weeks after application
# In short: as §3
# Italian ryegrass [19] = experiment: Test Example 5: herbicidal effect by foliage application, plastic box (Table 20, symbol K); assay type: in vivo, Italian ryegrass (Lolium multiflorum); settings: foliage application, 320 g/ha, three weeks after application
# In short: as §3
# windgrass [20] = experiment: Test Example 5: herbicidal effect by foliage application, plastic box (Table 20, symbol L); assay type: in vivo, windgrass (Apera spica-venti); settings: foliage application, 320 g/ha, three weeks after application
# In short: as §3
# velvetleaf [21] = experiment: Test Example 5: herbicidal effect by foliage application, plastic box (Table 20, symbol M); assay type: in vivo, velvetleaf (Abutilon theophrasti); settings: foliage application, 320 g/ha, three weeks after application
# In short: as §3
# redroot pigweed [22] = experiment: Test Example 5: herbicidal effect by foliage application, plastic box (Table 20, symbol N); assay type: in vivo, redroot pigweed (Amaranthus retroflexus); settings: foliage application, 320 g/ha, three weeks after application
# In short: as §3
# lambsquarters [23] = experiment: Test Example 5: herbicidal effect by foliage application, plastic box (Table 20, symbol O); assay type: in vivo, lambsquarters (Chenopodium album); settings: foliage application, 320 g/ha, three weeks after application
# In short: as §3
# chickweed [24] = experiment: Test Example 5: herbicidal effect by foliage application, plastic box (Table 20, symbol P); assay type: in vivo, common chickweed (Stellaria media); settings: foliage application, 320 g/ha, three weeks after application
# In short: as §3
# persian speedwell [25] = experiment: Test Example 5: herbicidal effect by foliage application, plastic box (Table 20, symbol R); assay type: in vivo, Persian speedwell (Veronica persica); settings: foliage application, 320 g/ha, three weeks after application
# In short: as §3
# [26] = amount of applied herbicide 320 g/ha
structure (smiles),measurement,setting,value
CC(=O)CSc1ccc(-c2sc3ccc(F)cc3c2-c2c(O)c(C)nn(C)c2=O)cc1 [2-424],herbicidal effect on H: barnyard grass,barnyard grass [1]; [26],5 (Herbicidal rate of 90% or more (almost completely withered))
same,herbicidal effect on D: Chinese sprangletop,Chinese sprangletop; [26],3 (Herbicidal rate of 40% or more and less than 70%)
same,herbicidal effect on E: rice flat sedge,rice flat sedge; [26],4 (Herbicidal rate of 70% or more and less than 90%)
same,"herbicidal effect, F: southern crabgrass",southern crabgrass [2],0 (Herbicidal rate of 5% or less (almost no effect))
same,"herbicidal effect, G: green foxtail",green foxtail [3],0 (Herbicidal rate of 5% or less (almost no effect))
same,"herbicidal effect, H: barnyard grass",barnyard grass [4],0 (Herbicidal rate of 5% or less (almost no effect))
same,"herbicidal effect, I: wild oat",wild oat [5],0 (Herbicidal rate of 5% or less (almost no effect))
same,"herbicidal effect, J: blackgrass",blackgrass [6],0 (Herbicidal rate of 5% or less (almost no effect))
same,"herbicidal effect, K: Italian ryegrass",Italian ryegrass [7],0 (Herbicidal rate of 5% or less (almost no effect))
same,"herbicidal effect, L: windgrass",windgrass [8],0 (Herbicidal rate of 5% or less (almost no effect))
same,"herbicidal effect, M: velvetleaf",velvetleaf [9],2 (Herbicidal rate of 20% or more and less than 40%)
same,"herbicidal effect, N: redroot pigweed",redroot pigweed [10],4 (Herbicidal rate of 70% or more and less than 90%)
same,"herbicidal effect, O: lambsquarters",lambsquarters [11],3 (Herbicidal rate of 40% or more and less than 70%)
same,"herbicidal effect, P: chickweed",chickweed [12],0 (Herbicidal rate of 5% or less (almost no effect))
same,"herbicidal effect, Q: false cleavers",false cleavers,0 (Herbicidal rate of 5% or less (almost no effect))
same,"herbicidal effect, R: persian speedwell",persian speedwell [13],0 (Herbicidal rate of 5% or less (almost no effect))
same,"F: southern crabgrass, herbicidal effect grade",southern crabgrass [14],3 (Herbicidal rate of 40% or more and less than 70%)
same,"G: green foxtail, herbicidal effect grade",green foxtail [15],3 (Herbicidal rate of 40% or more and less than 70%)
same,"H: barnyard grass, herbicidal effect grade",barnyard grass [16],5 (Herbicidal rate of 90% or more (almost completely withered))
same,"I: wild oat, herbicidal effect grade",wild oat [17],4 (Herbicidal rate of 70% or more and less than 90%)
same,"J: blackgrass, herbicidal effect grade",blackgrass [18],3 (Herbicidal rate of 40% or more and less than 70%)
same,"K: Italian ryegrass, herbicidal effect grade",Italian ryegrass [19],1 (Herbicidal rate of 5% or more and less than 20%)
same,"L: windgrass, herbicidal effect grade",windgrass [20],4 (Herbicidal rate of 70% or more and less than 90%)
same,"M: velvetleaf, herbicidal effect grade",velvetleaf [21],3 (Herbicidal rate of 40% or more and less than 70%)
same,"N: redroot pigweed, herbicidal effect grade",redroot pigweed [22],5 (Herbicidal rate of 90% or more (almost completely withered))
same,"O: lambsquarters, herbicidal effect grade",lambsquarters [23],3 (Herbicidal rate of 40% or more and less than 70%)
same,"P: chickweed, herbicidal effect grade",chickweed [24],5 (Herbicidal rate of 90% or more (almost completely withered))
same,"R: persian speedwell, herbicidal effect grade",persian speedwell [25],4 (Herbicidal rate of 70% or more and less than 90%)
Cc1nn(C)c(=O)c(-c2c(-c3ccc(OC(F)(F)F)cc3)sc3cc(F)ccc23)c1O [3-143],herbicidal effect on barnyard grass (H),barnyard grass [1]; 320 g/ha,5 (Herbicidal rate of 90% or more (almost completely withered))
same,herbicidal effect on Chinese sprangletop (D),Chinese sprangletop; 320 g/ha,4 (Herbicidal rate of 70% or more and less than 90%)
same,herbicidal effect on rice flat sedge (E),rice flat sedge; 320 g/ha,5 (Herbicidal rate of 90% or more (almost completely withered))
same,"Herbicidal effect by soil treatment, F: southern crabgrass",southern crabgrass [2],0 (Herbicidal rate of 5% or less (almost no effect))
same,"Herbicidal effect by soil treatment, G: green foxtail",green foxtail [3],2 (Herbicidal rate of 20% or more and less than 40%)
same,"Herbicidal effect by soil treatment, H: barnyard grass",barnyard grass [4],0 (Herbicidal rate of 5% or less (almost no effect))
same,"Herbicidal effect by soil treatment, I: wild oat",wild oat [5],0 (Herbicidal rate of 5% or less (almost no effect))
same,"Herbicidal effect by soil treatment, J: blackgrass",blackgrass [6],0 (Herbicidal rate of 5% or less (almost no effect))
same,"Herbicidal effect by soil treatment, K: Italian ryegrass",Italian ryegrass [7],0 (Herbicidal rate of 5% or less (almost no effect))
same,"Herbicidal effect by soil treatment, L: windgrass",windgrass [8],4 (Herbicidal rate of 70% or more and less than 90%)
same,"Herbicidal effect by soil treatment, M: velvetleaf",velvetleaf [9],0 (Herbicidal rate of 5% or less (almost no effect))
same,"Herbicidal effect by soil treatment, N: redroot pigweed",redroot pigweed [10],4 (Herbicidal rate of 70% or more and less than 90%)
same,"Herbicidal effect by soil treatment, O: lambsquarters",lambsquarters [11],4 (Herbicidal rate of 70% or more and less than 90%)
same,"Herbicidal effect by soil treatment, P: chickweed",chickweed [12],0 (Herbicidal rate of 5% or less (almost no effect))
same,"Herbicidal effect by soil treatment, Q: false cleavers",false cleavers,3 (Herbicidal rate of 40% or more and less than 70%)
same,"Herbicidal effect by soil treatment, R: persian speedwell",persian speedwell [13],3 (Herbicidal rate of 40% or more and less than 70%)
same,"F: southern crabgrass, herbicidal effect grade",southern crabgrass [14],1 (Herbicidal rate of 5% or more and less than 20%)
same,"G: green foxtail, herbicidal effect grade",green foxtail [15],4 (Herbicidal rate of 70% or more and less than 90%)
same,"H: barnyard grass, herbicidal effect grade",barnyard grass [16],4 (Herbicidal rate of 70% or more and less than 90%)
same,"I: wild oat, herbicidal effect grade",wild oat [17],0 (Herbicidal rate of 5% or less (almost no effect))
same,"J: blackgrass, herbicidal effect grade",blackgrass [18],5 (Herbicidal rate of 90% or more (almost completely withered))
same,"K: Italian ryegrass, herbicidal effect grade",Italian ryegrass [19],5 (Herbicidal rate of 90% or more (almost completely withered))
same,"L: windgrass, herbicidal effect grade",windgrass [20],5 (Herbicidal rate of 90% or more (almost completely withered))
same,"M: velvetleaf, herbicidal effect grade",velvetleaf [21],5 (Herbicidal rate of 90% or more (almost completely withered))
same,"N: redroot pigweed, herbicidal effect grade",redroot pigweed [22],5 (Herbicidal rate of 90% or more (almost completely withered))
same,"O: lambsquarters, herbicidal effect grade",lambsquarters [23],5 (Herbicidal rate of 90% or more (almost completely withered))
same,"P: chickweed, herbicidal effect grade",chickweed [24],5 (Herbicidal rate of 90% or more (almost completely withered))
same,"R: persian speedwell, herbicidal effect grade",persian speedwell [25],5 (Herbicidal rate of 90% or more (almost completely withered))
